Key:
[1] = Inhibition of Influenza A virus (A/Puerto Rico/8/1934(H1N1)) neuraminidase using 4-MU-NANA as substrate preincubated for 10 mins followed by substrate addition measured after 1 hr by fluorescence assay
[2] = Inhibition of Influenza A virus (A/Hong Kong/498/97(H3N2)) neuraminidase using 4-MU-NANA as substrate preincubated for 10 mins followed by substrate addition measured after 1 hr by fluorescence assay
[3] = Cytotoxicity against MDCK cells after 72 hrs by Alamar-Blue assay; assay type: cell-based, Canis lupus familiaris; details: dog

Structure (SMILES)	IC50 [1] [nM]	IC50 [2] [nM]	CC50 at 72 h [3] [nM]
CCC(CC)O[C@@H]1C=C(C(=O)O)C[C@H](NC(=N)NC(=O)c2cccc(C(F)(F)F)c2)[C@H]1NC(C)=O	216	76.1	
CCC(CC)O[C@@H]1C=C(C(=O)O)C[C@H](NC(=N)NC(=O)CCc2cccnc2)[C@H]1NC(C)=O	10.2	14.6	
CCC(CC)O[C@@H]1C=C(C(=O)O)C[C@H](NC(=N)NC(=O)Cc2ccc(Br)cc2)[C@H]1NC(C)=O	14.5	8	> 1000
CCC(CC)O[C@@H]1C=C(C(=O)O)C[C@H](NC(=N)NC(=O)Cc2ccc(C)cc2)[C@H]1NC(C)=O	29.4	9.5	
CCC(CC)O[C@@H]1C=C(C(=O)O)C[C@H](NC(=N)NC(=O)c2cc(C)cc(C)c2)[C@H]1NC(C)=O	155	159	
CCCC(=O)NC(=N)N[C@H]1CC(C(=O)O)=C[C@@H](OC(CC)CC)[C@@H]1NC(C)=O	34.8	11.2	
CCCCC(=O)NC(=N)N[C@H]1CC(C(=O)O)=C[C@@H](OC(CC)CC)[C@@H]1NC(C)=O	37	6	
CCC(CC)O[C@@H]1C=C(C(=O)O)C[C@H](NC(=N)NC(=O)CC(C)C)[C@H]1NC(C)=O	88.3	18.4	
CCC(CC)O[C@@H]1C=C(C(=O)O)C[C@H](NC(=N)NC(=O)c2ccccc2)[C@H]1NC(C)=O	574	334	
CCC(CC)O[C@@H]1C=C(C(=O)O)C[C@H](NC(=N)NC(=O)CCc2ccc(OC)c(OC)c2)[C@H]1NC(C)=O	1.43	3.64	> 1000
CCC(CC)O[C@@H]1C=C(C(=O)O)C[C@H](NC(=N)NC(=O)c2ccc(OC)cc2)[C@H]1NC(C)=O	68.6	215	
CCC(CC)O[C@@H]1C=C(C(=O)O)C[C@H](NC(=N)NC(=O)c2ccccc2Br)[C@H]1NC(C)=O	> 1000	> 1000	
CCC(=O)NC(=N)N[C@H]1CC(C(=O)O)=C[C@@H](OC(CC)CC)[C@@H]1NC(C)=O	39.1	11.4	> 1000
CCC(CC)O[C@@H]1C=C(C(=O)O)C[C@H](NC(=N)NC(=O)Cc2ccccc2C)[C@H]1NC(C)=O	86.5	22.8	
CCC(CC)O[C@@H]1C=C(C(=O)O)C[C@H](NC(=N)NC(=O)c2ccc(C)cc2)[C@H]1NC(C)=O	> 1000	> 1000	
C=CCCC(=O)NC(=N)N[C@H]1CC(C(=O)O)=C[C@@H](OC(CC)CC)[C@@H]1NC(C)=O	8.1	5.4	> 1000
CCC(CC)O[C@@H]1C=C(C(=O)O)C[C@H](NC(=N)NC(=O)c2ccccc2C(F)(F)F)[C@H]1NC(C)=O	> 1000	911	
CCC(CC)O[C@@H]1C=C(C(=O)O)C[C@H](NC(=N)NC(=O)CCc2ccccc2)[C@H]1NC(C)=O	30.1	9.4	
CCC(CC)O[C@@H]1C=C(C(=O)O)C[C@H](NC(=N)NC(=O)c2cccc(OC)c2)[C@H]1NC(C)=O	175	533	
CCC(CC)O[C@@H]1C=C(C(=O)O)C[C@H](NC(=N)NC(=O)c2ccc([N+](=O)[O-])cc2)[C@H]1NC(C)=O	20.1	14.2	> 1000
CCC(CC)O[C@@H]1C=C(C(=O)O)C[C@H](NC(=N)NC(=O)CCCc2ccccc2)[C@H]1NC(C)=O	64.9	21.4	
CCC(CC)O[C@@H]1C=C(C(=O)O)C[C@H](NC(=N)NC(=O)c2ccccc2O)[C@H]1NC(C)=O	49.8	185	
CCC(CC)O[C@@H]1C=C(C(=O)O)C[C@H](NC(=N)NC(=O)c2ccccc2C)[C@H]1NC(C)=O	> 1000	> 1000	
CCC(CC)O[C@@H]1C=C(C(=O)O)C[C@H](NC(=N)NC(=O)c2cccc(C)c2)[C@H]1NC(C)=O	11.5	19.5	
CCC(CC)O[C@@H]1C=C(C(=O)O)C[C@H](NC(=N)NC(=O)Cc2ccc3ccccc3c2)[C@H]1NC(C)=O	21.1	7.2	> 1000
CCC(CC)O[C@@H]1C=C(C(=O)O)C[C@H](NC(=N)NC(=O)C(C)C)[C@H]1NC(C)=O	38.2	13.7	
CCC(CC)O[C@@H]1C=C(C(=O)O)C[C@H](NC(=N)NC(=O)c2ccncc2)[C@H]1NC(C)=O	15.2	16.1	
CCC(CC)O[C@@H]1C=C(C(=O)O)C[C@H](NC(=N)NC(=O)c2ccccc2OC)[C@H]1NC(C)=O	53.5	125	

Reference: ChEMBL document CHEMBL4024722, “Discovery of acylguanidine oseltamivir carboxylate derivatives as potent neuraminidase inhibitors” (Bioorg Med Chem, 2017)
